Test results: ChEMBL document CHEMBL1201862, “PubChem BioAssay data set” (2004)
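Growth conditions: 96-well plates. Treatment: test compound, 48 hours, 5 concentrations. Analysis: linear interpolation between bracketing concentrations; unreached endpoints set to highest concentration. The concentration for 50% growth inhibition is given as GI50.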 Calls of active or inactive are those of the source. Cut-off read from the data, not from the text of the source: active = GI50 up to about 1.1 µM and inactive = higher.

How the values were obtained:
Assay in all cases: inhibition of tumour cell growth, NCI panel, 48 h
MCF7 = system: MCF7
DU-145 = system: DU-145
OVCAR-3 = system: OVCAR-3
CCRF-CEM = system: CCRF-CEM
UACC-62 = system: UACC-62
MDA-MB-435 = system: MDA-MB-435
SR = system: SR
NCI-H226 = system: NCI-H226
UO-31 = system: UO-31
SF-268 = system: SF-268
SNB-19 = system: SNB-19
KM12 = system: KM12
SK-MEL-28 = system: SK-MEL-28
A549 = system: A549
BT-549 = system: BT-549
U-251 = system: U-251
HCC 2998 = system: HCC 2998
T47D = system: T47D
NCI-H23 = system: NCI-H23
LOX IMVI = system: LOX IMVI
HCT-116 = system: HCT-116
SF-295 = system: SF-295
SNB-75 = system: SNB-75
SK-MEL-2 = system: SK-MEL-2
SW-620 = system: SW-620
IGROV-1 = system: IGROV-1
A498 = system: A498
RPMI-8226 = system: RPMI-8226
MDA-MB-231 = system: MDA-MB-231
PC-3 = system: PC-3
HOP-92 = system: HOP-92
HCT-15 = system: HCT-15
OVCAR-8 = system: OVCAR-8
Hs-578T = system: Hs-578T
K562 = system: K562
TK-10 = system: TK-10
EKVX = system: EKVX
UACC-257 = system: UACC-257
CAKI-1 = system: CAKI-1
NCI-H460 = system: NCI-H460
RXF 393 = system: RXF 393
NCI-H522 = system: NCI-H522
MDA-N = system: MDA-N
ACHN = system: ACHN
SN12C = system: SN12C
M14 = system: M14
SF-539 = system: SF-539
COLO 205 = system: COLO 205
MOLT-4 = system: MOLT-4
786-0 = system: 786-0
OVCAR-5 = system: OVCAR-5
SK-MEL-5 = system: SK-MEL-5
HL-60 = system: HL-60
Malme-3M = system: Malme-3M
HOP-62 = system: HOP-62
SK-OV-3 = system: SK-OV-3
HT-29 = system: HT-29

## CC1C(NNc2ccccc2)Oc2cc3c(cc2C1c1ccccc1O)OCO3 (configuration not stated)
MCF7
  GI50: 3.94 µM (inactive)
DU-145
  GI50: 3.89 µM (inactive)
OVCAR-3
  GI50: 11.8 µM (inactive)
CCRF-CEM
  GI50: 1.4 µM (inactive)
UACC-62
  GI50: 1.44 µM (inactive)
MDA-MB-435
  GI50: 0.946 µM (active)
SR
  GI50: 0.284 µM (active)
NCI-H226
  GI50: 12.8 µM (inactive)
UO-31
  GI50: 1.59 µM (inactive)
SF-268
  GI50: 12.2 µM (inactive)
SNB-19
  GI50: 14.3 µM (inactive)
KM12
  GI50: 0.741 µM (active)
SK-MEL-28
  GI50: 12.3 µM (inactive)
A549
  GI50: 2.93 µM (inactive)
BT-549
  GI50: 14.2 µM (inactive)
U-251
  GI50: 10.1 µM (inactive)
HCC 2998
  GI50: 4.56 µM (inactive)
T47D
  GI50: 2.77 µM (inactive)
NCI-H23
  GI50: 12.8 µM (inactive)
LOX IMVI
  GI50: 12.5 µM (inactive)
HCT-116
  GI50: 4.69 µM (inactive)
SF-295
  GI50: 0.632 µM (active)
SNB-75
  GI50: 10.1 µM (inactive)
SK-MEL-2
  GI50: 10.9 µM (inactive)
SW-620
  GI50: 13.7 µM (inactive)
IGROV-1
  GI50: 1.7 µM (inactive)
A498
  GI50: 15.7 µM (inactive)
RPMI-8226
  GI50: 4.07 µM (inactive)
MDA-MB-231
  GI50: 13.4 µM (inactive)
PC-3
  GI50: 3.2 µM (inactive)
HOP-92
  GI50: 13.5 µM (inactive)
HCT-15
  GI50: 1.7 µM
OVCAR-8
  GI50: 10 µM (inactive)
Hs-578T
  GI50: 14.3 µM (inactive)
K562
  GI50: 0.444 µM (active)
TK-10
  GI50: 4.81 µM (inactive)
EKVX
  GI50: 10.9 µM (inactive)
UACC-257
  GI50: 6.89 µM (inactive)
CAKI-1
  GI50: 0.962 µM (active)
NCI-H460
  GI50: 2.81 µM (inactive)
RXF 393
  GI50: 15.7 µM (inactive)
NCI-H522
  GI50: 0.575 µM (active)
MDA-N
  GI50: 4.06 µM (inactive)
ACHN
  GI50: 0.962 µM (active)
SN12C
  GI50: 5.79 µM (inactive)
M14
  GI50: 1.93 µM (inactive)
SF-539
  GI50: 2.01 µM (inactive)
COLO 205
  GI50: 11.3 µM (inactive)
MOLT-4
  GI50: 3.17 µM (inactive)
786-0
  GI50: 5.53 µM (inactive)
OVCAR-5
  GI50: 4.61 µM (inactive)
SK-MEL-5
  GI50: 11.6 µM (inactive)
HL-60
  GI50: 4.01 µM (inactive)
Malme-3M
  GI50: 3.47 µM (inactive)
HOP-62
  GI50: 3.1 µM (inactive)
SK-OV-3
  GI50: 10.5 µM (inactive)
HT-29
  GI50: 6.03 µM (inactive)
